Test results reported in ChEMBL document CHEMBL1201862, “PubChem BioAssay data set” (2004).
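1) Cells in 96-well plates. 2) Compound, 48 h, 5 concentrations. 3) Linear interpolation between surrounding doses. 4) Unreached endpoint = highest concentration. GI50: concentration for 50% inhibition of growth.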 Calls of active or inactive are those of the source. Cut-off read from the data, not from the text of the source: active = GI50 up to about 1.1 µM and inactive = higher.

Tests used:
Assay in all cases: NCI tumour cell line growth inhibition, 48 h
[1] = system: NCI-H460
[2] = system: K562
[3] = system: COLO 205
[4] = system: RPMI-8226
[5] = system: SW-620
[6] = system: SN12C
[7] = system: SF-268
[8] = system: HOP-92
[9] = system: SK-MEL-5
[10] = system: NCI-H226
[11] = system: 786-0
[12] = system: DU-145
[13] = system: IGROV-1
[14] = system: Hs-578T
[15] = system: HL-60
[16] = system: Malme-3M
[17] = system: A498
[18] = system: SNB-75
[19] = system: KM12
[20] = system: HCT-116
[21] = system: OVCAR-4
[22] = system: MDA-N
[23] = system: CCRF-CEM
[24] = system: T47D
[25] = system: SNB-19
[26] = system: NCI-H23
[27] = system: SF-295
[28] = system: SK-OV-3
[29] = system: UACC-62
[30] = system: UACC-257
[31] = system: A549
[32] = system: SK-MEL-28
[33] = system: HCT-15
[34] = system: BT-549
[35] = system: OVCAR-8
[36] = system: U-251
[37] = system: PC-3
[38] = system: SF-539
[39] = system: LOX IMVI
[40] = system: HOP-62
[41] = system: CAKI-1
[42] = system: SR
[43] = system: EKVX
[44] = system: NCI/ADR-RES
[45] = system: NCI-H522
[46] = system: MDA-MB-435
[47] = system: UO-31
[48] = system: ACHN
[49] = system: RXF 393
[50] = system: SK-MEL-2
[51] = system: MDA-MB-231
[52] = system: OVCAR-3
[53] = system: MCF7
[54] = system: TK-10
[55] = system: HT-29
[56] = system: M14
[57] = system: OVCAR-5
[58] = system: MOLT-4
[59] = system: HCC 2998

## O=C(O)CCNc1ccccc1C(=O)O
[1]
  GI50: > 100 µM (inactive)
[2]
  GI50: > 100 µM (inactive)
[3]
  GI50: > 100 µM (inactive)
[4]
  GI50: > 100 µM (inactive)
[5]
  GI50: > 100 µM (inactive)
[6]
  GI50: > 100 µM (inactive)
[7]
  GI50: > 100 µM (inactive)
[8]
  GI50: > 100 µM (inactive)
[9]
  GI50: > 100 µM (inactive)
[10]
  GI50: > 100 µM (inactive)
[11]
  GI50: > 100 µM (inactive)
[12]
  GI50: > 100 µM (inactive)
[13]
  GI50: > 100 µM (inactive)
[14]
  GI50: > 100 µM (inactive)
[15]
  GI50: > 100 µM (inactive)
[16]
  GI50: > 100 µM (inactive)
[17]
  GI50: > 100 µM (inactive)
[18]
  GI50: > 100 µM (inactive)
[19]
  GI50: > 100 µM (inactive)
[20]
  GI50: > 100 µM (inactive)
[21]
  GI50: > 100 µM (inactive)
[22]
  GI50: > 100 µM (inactive)
[23]
  GI50: > 100 µM (inactive)
[24]
  GI50: > 100 µM (inactive)
[25]
  GI50: > 100 µM (inactive)
[26]
  GI50: > 100 µM (inactive)
[27]
  GI50: > 100 µM (inactive)
[28]
  GI50: > 100 µM (inactive)
[29]
  GI50: > 100 µM (inactive)
[30]
  GI50: > 100 µM (inactive)
[31]
  GI50: > 100 µM (inactive)
[32]
  GI50: > 100 µM (inactive)
[33]
  GI50: > 100 µM
[34]
  GI50: > 100 µM (inactive)
[35]
  GI50: > 100 µM (inactive)
[36]
  GI50: > 100 µM (inactive)
[37]
  GI50: > 100 µM (inactive)
[38]
  GI50: > 100 µM (inactive)
[39]
  GI50: > 100 µM (inactive)
[40]
  GI50: > 100 µM (inactive)
[41]
  GI50: > 100 µM (inactive)
[42]
  GI50: > 100 µM (inactive)
[43]
  GI50: 99.1 µM (inactive)
[44]
  GI50: > 100 µM (inactive)
[45]
  GI50: > 100 µM (inactive)
[46]
  GI50: > 100 µM (inactive)
[47]
  GI50: > 100 µM (inactive)
[48]
  GI50: > 100 µM (inactive)
[49]
  GI50: > 100 µM (inactive)
[50]
  GI50: > 100 µM (inactive)
[51]
  GI50: > 100 µM (inactive)
[52]
  GI50: > 100 µM (inactive)
[53]
  GI50: > 100 µM (inactive)
[54]
  GI50: > 100 µM (inactive)
[55]
  GI50: > 100 µM (inactive)
[56]
  GI50: > 100 µM (inactive)
[57]
  GI50: > 100 µM (inactive)
[58]
  GI50: > 100 µM (inactive)

## O=C(O)c1ccc2c(O)c(O)ccc2c1
[2]
  GI50: 7.8 µM (inactive)
[3]
  GI50: 26.2 µM (inactive)
[4]
  GI50: 15.4 µM (inactive)
[5]
  GI50: 26.5 µM (inactive)
[6]
  GI50: 8.61 µM (inactive)
[7]
  GI50: 8.47 µM (inactive)
[8]
  GI50: 32.8 µM (inactive)
[9]
  GI50: 17.3 µM (inactive)
[10]
  GI50: 18.7 µM (inactive)
[11]
  GI50: 18.1 µM (inactive)
[12]
  GI50: 39.8 µM (inactive)
[13]
  GI50: 19.7 µM (inactive)
[14]
  GI50: 27.2 µM (inactive)
[16]
  GI50: 38.9 µM (inactive)
[17]
  GI50: 44.4 µM (inactive)
[18]
  GI50: 10.4 µM (inactive)
[19]
  GI50: 16.4 µM (inactive)
[20]
  GI50: 25.9 µM (inactive)
[21]
  GI50: 21.5 µM (inactive)
[22]
  GI50: 18.5 µM (inactive)
[24]
  GI50: 45.4 µM (inactive)
[25]
  GI50: 18.8 µM (inactive)
[26]
  GI50: 22 µM (inactive)
[27]
  GI50: 15.2 µM (inactive)
[28]
  GI50: > 43.1 µM (inactive)
[29]
  GI50: > 10 µM (inactive)
[30]
  GI50: 21.1 µM (inactive)
[31]
  GI50: 28 µM (inactive)
[32]
  GI50: > 100 µM (inactive)
[33]
  GI50: 21.6 µM
[34]
  GI50: 21.6 µM (inactive)
[35]
  GI50: 20 µM (inactive)
[36]
  GI50: 19.9 µM (inactive)
[37]
  GI50: 33.7 µM (inactive)
[38]
  GI50: 4.81 µM (inactive)
[39]
  GI50: 5.38 µM (inactive)
[40]
  GI50: 20.7 µM (inactive)
[41]
  GI50: 21.6 µM (inactive)
[42]
  GI50: 3.17 µM (inactive)
[43]
  GI50: 20.8 µM (inactive)
[44]
  GI50: 19.5 µM (inactive)
[45]
  GI50: 16.9 µM (inactive)
[46]
  GI50: 14.1 µM (inactive)
[59]
  GI50: 33.3 µM (inactive)
[47]
  GI50: 19.5 µM (inactive)
[48]
  GI50: 15.8 µM (inactive)
[49]
  GI50: 20.9 µM (inactive)
[50]
  GI50: 26.8 µM (inactive)
[51]
  GI50: 29 µM (inactive)
[52]
  GI50: 18.8 µM (inactive)
[53]
  GI50: 7.23 µM (inactive)
[54]
  GI50: 13.8 µM (inactive)
[55]
  GI50: 6.82 µM (inactive)
[56]
  GI50: 23.5 µM (inactive)
[57]
  GI50: 26.3 µM (inactive)
[58]
  GI50: 6.75 µM (inactive)
